From ChEMBL document CHEMBL4715844, “Structure-based virtual screening and biological evaluation of novel non-bisphosphonate farnesyl pyrophosphate synthase inhibitors” (Eur J Med Chem, 2020)
pKd: −log10 of the molar value.

Tests used:
[1] = target: T1, Farnesyl pyrophosphate synthase (Rattus norvegicus) (UniProt P05369); experiment: Inhibition of rat FPPS expressed in Escherichia coli BL21 (DE3) using GPP and IPP as substrate at 10 uM incubated for 10 mins by microplate reader
T1 sequence (whole entry): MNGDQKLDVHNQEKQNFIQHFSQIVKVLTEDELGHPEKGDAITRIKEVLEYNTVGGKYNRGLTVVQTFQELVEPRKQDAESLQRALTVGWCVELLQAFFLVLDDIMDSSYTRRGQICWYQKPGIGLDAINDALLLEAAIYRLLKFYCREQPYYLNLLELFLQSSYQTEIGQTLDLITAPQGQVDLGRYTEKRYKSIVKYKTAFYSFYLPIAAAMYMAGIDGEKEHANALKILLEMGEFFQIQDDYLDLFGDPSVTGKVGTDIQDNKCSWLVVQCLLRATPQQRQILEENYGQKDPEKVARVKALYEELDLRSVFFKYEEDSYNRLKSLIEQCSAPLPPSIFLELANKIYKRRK

[2] = target: T2, Farnesyl pyrophosphate synthase (Rattus norvegicus, UniProt P05369); experiment: Binding affinity to rat FPPS expressed in Escherichia coli BL21 (DE3) by isothermal titration calorimetry
T2 sequence (P05369 whole entry): T1 sequence (whole entry)

- inhibition [1]: 13%
- pKd [2]: 3.74
SMILES: O=C(CC1(O)C(=O)Nc2ccccc21)CC1(O)C(=O)Nc2ccccc21 (configuration not stated)
